Test [1] deals with Tyrosine-protein kinase Fyn (Homo sapiens) (UniProt P06241). Kind of test: Selectivity interaction (LanthaScreen Eu Kinase Binding Assay) EUB0001632a FYN. Particulars: at 10 µM.
Test [2] has as its system Epidermal growth factor receptor (Homo sapiens), P00533 [UNDEFINED MUTATION]. The experiment in a line: Selectivity interaction (Ambit KINOMEscan and KiNATiv profiling in Jurkat cells) EUB0000090b EGFR. In kind it is cell-based. Particulars: at 1 µM.
Test [3] deals with T1, Muscarinic acetylcholine receptor M2 (Homo sapiens) (UniProt P08172).
T1 sequence (whole entry): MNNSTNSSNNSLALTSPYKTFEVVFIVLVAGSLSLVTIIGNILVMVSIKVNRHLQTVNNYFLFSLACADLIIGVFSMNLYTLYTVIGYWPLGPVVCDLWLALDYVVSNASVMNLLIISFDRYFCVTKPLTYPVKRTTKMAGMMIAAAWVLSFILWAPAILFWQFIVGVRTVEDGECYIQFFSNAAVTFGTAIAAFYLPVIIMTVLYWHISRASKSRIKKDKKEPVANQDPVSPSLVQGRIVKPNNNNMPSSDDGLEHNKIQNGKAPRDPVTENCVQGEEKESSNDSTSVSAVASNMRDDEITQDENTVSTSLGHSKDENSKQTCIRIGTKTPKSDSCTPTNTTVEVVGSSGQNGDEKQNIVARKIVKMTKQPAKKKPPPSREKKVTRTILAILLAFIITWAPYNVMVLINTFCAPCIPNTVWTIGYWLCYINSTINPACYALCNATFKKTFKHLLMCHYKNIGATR
The experiment in a line: Selectivity interaction (Panel of non-epigenetic targets (kinases, GPCRs, ion channels, and transporters, Eurofins) ) EUB0000271b CHRM2. Particulars: at 1 µM.

Test [4] deals with Tyrosine-protein kinase Fgr (Homo sapiens) (UniProt P09769). Kind of test: Selectivity interaction (KinomeScan (DiscoverX)) EUB0000607a FGR. Particulars: at 10 µM.
For test [5], the target named is T2, Serine/threonine-protein kinase tousled-like 1 (Homo sapiens) (UniProt Q9UKI8).
T2 sequence (whole entry): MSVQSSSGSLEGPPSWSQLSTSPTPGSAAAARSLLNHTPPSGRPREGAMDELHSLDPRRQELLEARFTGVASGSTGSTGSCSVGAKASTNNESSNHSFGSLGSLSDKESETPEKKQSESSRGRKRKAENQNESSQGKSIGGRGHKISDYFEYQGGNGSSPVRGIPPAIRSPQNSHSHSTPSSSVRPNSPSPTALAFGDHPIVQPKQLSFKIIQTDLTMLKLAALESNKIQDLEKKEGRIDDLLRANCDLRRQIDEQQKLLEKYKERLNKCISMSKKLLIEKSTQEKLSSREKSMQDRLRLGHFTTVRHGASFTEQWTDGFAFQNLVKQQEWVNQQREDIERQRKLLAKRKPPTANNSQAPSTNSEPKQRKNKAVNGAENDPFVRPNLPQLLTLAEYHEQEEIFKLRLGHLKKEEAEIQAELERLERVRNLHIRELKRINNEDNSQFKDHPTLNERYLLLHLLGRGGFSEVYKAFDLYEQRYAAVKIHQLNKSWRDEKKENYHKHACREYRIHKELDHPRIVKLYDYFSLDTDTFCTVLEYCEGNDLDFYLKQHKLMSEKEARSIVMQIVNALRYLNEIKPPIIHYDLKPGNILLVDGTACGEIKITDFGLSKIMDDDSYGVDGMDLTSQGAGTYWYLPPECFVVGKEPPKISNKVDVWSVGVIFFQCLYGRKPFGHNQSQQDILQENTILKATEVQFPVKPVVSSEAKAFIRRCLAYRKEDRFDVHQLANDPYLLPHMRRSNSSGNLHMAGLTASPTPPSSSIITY
The experiment in a line: Selectivity interaction (KinomeScan (DiscoverX)) EUB0000666a TLK1. Particulars: at 10 µM.

The target of test [6] is G protein-coupled receptor kinase 4 (Homo sapiens) (UniProt P32298). Kind of test: Selectivity interaction (KinomeScan (DiscoverX)) EUB0000666a GRK4. The note with it: at 10 µM.
The target is the same in test [7]. The experiment in a line: Selectivity interaction (KinomeScan (DiscoverX)) EUB0000229b GRK4. Particulars: at 10 µM.
In test [8] the target is Glycogen synthase kinase-3 alpha (Homo sapiens, UniProt P49840). The experiment in a line: Selectivity interaction (KinomeScan (DiscoverX)) EUB0001619a GSK3A. Particulars: at 1 µM.
For test [9], the target named is Macrophage colony-stimulating factor 1 receptor (Homo sapiens) (UniProt P07333). The experiment in a line: Selectivity interaction (Kinase panel (Invitrogen)) EUB0000639a CSF1R. Particulars: at 200 nM.
Test [10] concerns the target T3, Aurora kinase A (Homo sapiens) (UniProt O14965).
T3 sequence (whole entry): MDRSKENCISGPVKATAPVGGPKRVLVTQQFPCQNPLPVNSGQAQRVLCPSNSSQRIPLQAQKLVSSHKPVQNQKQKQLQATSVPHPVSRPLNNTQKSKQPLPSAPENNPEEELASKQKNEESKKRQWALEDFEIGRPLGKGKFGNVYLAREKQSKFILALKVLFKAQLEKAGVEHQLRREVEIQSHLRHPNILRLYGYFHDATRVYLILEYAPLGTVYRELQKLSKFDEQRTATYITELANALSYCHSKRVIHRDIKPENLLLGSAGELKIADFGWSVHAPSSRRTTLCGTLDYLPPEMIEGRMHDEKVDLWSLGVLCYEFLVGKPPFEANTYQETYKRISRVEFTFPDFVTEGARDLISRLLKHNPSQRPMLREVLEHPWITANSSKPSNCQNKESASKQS
Kind of test: Selectivity interaction (ActivX KiNativ screen (kinase selectivity in THP-1 cell lysates)) EUB0000639a STK6. In kind it is subcellular. The note with it: lysate, at 5 µM.

Test [11] has as its target Angiopoietin-1 receptor (Homo sapiens) (UniProt Q02763). The experiment in a line: Selectivity interaction (Kinase screening (Nanosyn)) EUB0000604a TEK.
Test [12] has as its target T4, Mitogen-activated protein kinase 13 (Homo sapiens) (UniProt O15264).
T4 sequence (whole entry): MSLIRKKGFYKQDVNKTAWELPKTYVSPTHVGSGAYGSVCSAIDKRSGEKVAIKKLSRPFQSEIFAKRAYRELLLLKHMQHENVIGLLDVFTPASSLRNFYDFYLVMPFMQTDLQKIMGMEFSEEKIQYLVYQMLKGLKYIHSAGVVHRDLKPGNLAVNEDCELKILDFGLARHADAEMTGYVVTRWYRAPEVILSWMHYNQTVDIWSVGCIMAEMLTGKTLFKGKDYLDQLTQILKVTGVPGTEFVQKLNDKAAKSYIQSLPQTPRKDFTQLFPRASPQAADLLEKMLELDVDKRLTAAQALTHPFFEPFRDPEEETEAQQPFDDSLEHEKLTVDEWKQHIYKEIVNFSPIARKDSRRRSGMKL
Kind of test: Selectivity interaction (KinomeScan (DiscoverX)) EUB0000695a MAPK13. The note with it: at 100 nM.

Test [13] deals with Atypical kinase COQ8A, mitochondrial (Homo sapiens, UniProt Q8NI60). Kind of test: Selectivity interaction (KinomeScan (DiscoverX)) EUB0000045b ADCK3.
In test [14] the target is Ribosomal protein S6 kinase alpha-2 (Homo sapiens) (UniProt Q15349). The experiment in a line: Selectivity interaction (KinomeScan (DiscoverX)) EUB0000045b RPS6KA2. Particulars: at 1 µM.
Test [15] deals with Dual specificity protein kinase CLK1 (Homo sapiens, UniProt P49759). Kind of test: Selectivity interaction (KinomeScan (DiscoverX)) EUB0000595a CLK1. Particulars: at 10 µM.
Dual specificity protein kinase CLK1, sequence (P49759 whole entry, looked up): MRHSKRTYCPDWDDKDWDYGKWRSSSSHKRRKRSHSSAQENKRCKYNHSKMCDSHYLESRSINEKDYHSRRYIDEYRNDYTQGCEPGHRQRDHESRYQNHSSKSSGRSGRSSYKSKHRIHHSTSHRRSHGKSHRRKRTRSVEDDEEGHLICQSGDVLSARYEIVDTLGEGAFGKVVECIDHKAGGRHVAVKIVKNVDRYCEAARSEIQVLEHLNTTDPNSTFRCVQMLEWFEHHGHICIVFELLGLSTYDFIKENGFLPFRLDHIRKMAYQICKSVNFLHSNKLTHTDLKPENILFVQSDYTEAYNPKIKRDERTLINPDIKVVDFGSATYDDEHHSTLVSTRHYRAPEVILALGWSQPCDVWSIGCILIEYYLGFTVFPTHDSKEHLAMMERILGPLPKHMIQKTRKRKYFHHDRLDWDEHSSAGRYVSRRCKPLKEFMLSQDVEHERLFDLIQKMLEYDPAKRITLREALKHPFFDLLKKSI

Atypical kinase COQ8A, mitochondrial, sequence (Q8NI60 163-647 limits assumed): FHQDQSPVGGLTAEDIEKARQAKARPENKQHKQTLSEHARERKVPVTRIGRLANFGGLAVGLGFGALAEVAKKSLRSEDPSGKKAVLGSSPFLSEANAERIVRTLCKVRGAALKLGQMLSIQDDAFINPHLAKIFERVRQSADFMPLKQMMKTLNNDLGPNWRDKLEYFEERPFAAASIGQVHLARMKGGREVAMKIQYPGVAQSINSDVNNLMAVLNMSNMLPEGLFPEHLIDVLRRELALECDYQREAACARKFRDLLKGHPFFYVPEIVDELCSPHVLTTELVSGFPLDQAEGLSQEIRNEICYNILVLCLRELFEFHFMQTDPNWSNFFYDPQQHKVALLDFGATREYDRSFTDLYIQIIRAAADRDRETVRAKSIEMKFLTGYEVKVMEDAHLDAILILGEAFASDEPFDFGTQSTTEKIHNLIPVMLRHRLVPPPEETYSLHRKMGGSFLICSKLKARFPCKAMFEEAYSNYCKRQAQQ
G protein-coupled receptor kinase 4 (Homo sapiens), sequence (P32298 whole entry, looked up): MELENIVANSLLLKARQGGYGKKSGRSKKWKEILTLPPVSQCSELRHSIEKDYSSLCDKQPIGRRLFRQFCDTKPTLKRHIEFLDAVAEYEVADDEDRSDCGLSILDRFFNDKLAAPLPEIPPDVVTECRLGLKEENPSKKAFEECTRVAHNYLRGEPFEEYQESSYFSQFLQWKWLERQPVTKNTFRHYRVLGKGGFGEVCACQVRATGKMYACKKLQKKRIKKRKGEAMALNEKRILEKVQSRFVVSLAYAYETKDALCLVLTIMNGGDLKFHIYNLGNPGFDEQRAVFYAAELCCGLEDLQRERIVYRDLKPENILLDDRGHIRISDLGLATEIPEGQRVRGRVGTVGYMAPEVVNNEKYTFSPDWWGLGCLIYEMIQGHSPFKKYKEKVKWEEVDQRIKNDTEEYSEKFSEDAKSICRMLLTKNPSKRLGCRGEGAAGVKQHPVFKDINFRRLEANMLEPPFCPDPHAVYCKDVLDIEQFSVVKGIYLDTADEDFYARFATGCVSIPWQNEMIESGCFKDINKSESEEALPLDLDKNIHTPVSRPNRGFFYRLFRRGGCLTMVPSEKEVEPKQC
Tyrosine-protein kinase Fyn (Homo sapiens), sequence (P06241 2-537 limits assumed): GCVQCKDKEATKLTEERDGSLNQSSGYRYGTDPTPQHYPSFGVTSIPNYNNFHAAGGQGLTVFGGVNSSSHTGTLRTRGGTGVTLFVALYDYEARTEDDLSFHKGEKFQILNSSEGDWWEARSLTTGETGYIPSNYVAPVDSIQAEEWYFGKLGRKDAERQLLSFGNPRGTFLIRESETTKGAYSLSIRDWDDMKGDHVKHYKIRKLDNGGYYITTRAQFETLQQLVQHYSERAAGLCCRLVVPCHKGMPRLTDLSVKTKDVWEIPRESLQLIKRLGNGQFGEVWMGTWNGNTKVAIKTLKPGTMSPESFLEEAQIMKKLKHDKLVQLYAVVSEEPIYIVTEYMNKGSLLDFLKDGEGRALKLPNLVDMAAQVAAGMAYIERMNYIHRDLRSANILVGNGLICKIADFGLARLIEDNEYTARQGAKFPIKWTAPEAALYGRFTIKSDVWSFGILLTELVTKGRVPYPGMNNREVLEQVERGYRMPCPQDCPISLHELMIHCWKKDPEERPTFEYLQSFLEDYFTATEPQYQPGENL
Macrophage colony-stimulating factor 1 receptor (Homo sapiens), sequence (P07333 whole entry): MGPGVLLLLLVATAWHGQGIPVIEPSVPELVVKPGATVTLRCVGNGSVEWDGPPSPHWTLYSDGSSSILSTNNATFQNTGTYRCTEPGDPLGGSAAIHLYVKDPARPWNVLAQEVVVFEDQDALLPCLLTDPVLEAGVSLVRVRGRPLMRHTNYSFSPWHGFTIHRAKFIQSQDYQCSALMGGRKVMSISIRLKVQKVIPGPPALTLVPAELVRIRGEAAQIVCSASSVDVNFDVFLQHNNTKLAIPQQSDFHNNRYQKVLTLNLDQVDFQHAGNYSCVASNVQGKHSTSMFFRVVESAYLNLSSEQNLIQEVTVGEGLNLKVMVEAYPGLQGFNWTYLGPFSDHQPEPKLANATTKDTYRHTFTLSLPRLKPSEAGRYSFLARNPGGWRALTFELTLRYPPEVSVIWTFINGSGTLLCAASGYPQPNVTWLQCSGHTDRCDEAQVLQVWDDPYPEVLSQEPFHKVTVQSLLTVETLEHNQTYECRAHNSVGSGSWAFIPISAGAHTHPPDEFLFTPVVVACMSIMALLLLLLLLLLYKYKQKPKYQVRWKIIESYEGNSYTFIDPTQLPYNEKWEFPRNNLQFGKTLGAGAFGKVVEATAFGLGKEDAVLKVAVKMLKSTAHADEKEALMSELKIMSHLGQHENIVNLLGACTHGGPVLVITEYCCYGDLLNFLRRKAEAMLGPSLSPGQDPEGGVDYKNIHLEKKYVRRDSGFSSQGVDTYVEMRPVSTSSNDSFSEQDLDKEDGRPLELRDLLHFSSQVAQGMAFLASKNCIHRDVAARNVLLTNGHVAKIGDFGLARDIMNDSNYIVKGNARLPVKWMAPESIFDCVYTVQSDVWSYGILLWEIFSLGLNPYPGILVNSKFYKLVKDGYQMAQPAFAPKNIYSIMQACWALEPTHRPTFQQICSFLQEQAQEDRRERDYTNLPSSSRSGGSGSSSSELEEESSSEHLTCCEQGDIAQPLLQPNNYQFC
Epidermal growth factor receptor (Homo sapiens), P00533 [UNDEFINED MUTATION], sequence (P00533 whole entry, looked up, change not shown): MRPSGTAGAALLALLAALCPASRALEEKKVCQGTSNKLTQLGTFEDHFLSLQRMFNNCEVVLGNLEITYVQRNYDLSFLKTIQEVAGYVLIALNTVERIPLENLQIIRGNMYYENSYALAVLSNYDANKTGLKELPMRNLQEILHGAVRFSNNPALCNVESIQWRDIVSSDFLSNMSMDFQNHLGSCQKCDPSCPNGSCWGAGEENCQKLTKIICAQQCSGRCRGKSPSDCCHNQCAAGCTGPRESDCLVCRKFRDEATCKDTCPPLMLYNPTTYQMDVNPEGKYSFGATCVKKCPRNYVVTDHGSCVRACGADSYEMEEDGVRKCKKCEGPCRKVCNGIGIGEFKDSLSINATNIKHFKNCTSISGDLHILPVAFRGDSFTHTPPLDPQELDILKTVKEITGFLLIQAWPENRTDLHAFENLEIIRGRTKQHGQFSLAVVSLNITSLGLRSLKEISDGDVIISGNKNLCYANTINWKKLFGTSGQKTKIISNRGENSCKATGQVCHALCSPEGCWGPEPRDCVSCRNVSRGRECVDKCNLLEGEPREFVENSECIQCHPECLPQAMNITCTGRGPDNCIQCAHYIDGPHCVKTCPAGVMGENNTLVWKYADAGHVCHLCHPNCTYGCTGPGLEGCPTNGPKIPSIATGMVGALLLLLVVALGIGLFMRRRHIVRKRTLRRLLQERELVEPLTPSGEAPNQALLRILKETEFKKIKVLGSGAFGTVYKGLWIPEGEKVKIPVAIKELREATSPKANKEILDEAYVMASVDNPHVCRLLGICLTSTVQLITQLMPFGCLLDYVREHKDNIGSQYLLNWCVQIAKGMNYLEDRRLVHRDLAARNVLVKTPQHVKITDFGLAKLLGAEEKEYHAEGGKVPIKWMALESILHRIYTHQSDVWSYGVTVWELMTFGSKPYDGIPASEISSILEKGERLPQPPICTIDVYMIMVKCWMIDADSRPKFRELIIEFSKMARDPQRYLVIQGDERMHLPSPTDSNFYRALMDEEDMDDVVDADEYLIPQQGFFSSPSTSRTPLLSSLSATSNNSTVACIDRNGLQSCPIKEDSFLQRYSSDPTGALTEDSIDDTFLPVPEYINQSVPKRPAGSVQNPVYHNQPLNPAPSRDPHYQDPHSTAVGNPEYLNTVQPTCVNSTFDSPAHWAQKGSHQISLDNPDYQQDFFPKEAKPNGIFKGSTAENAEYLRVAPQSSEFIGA
Tyrosine-protein kinase Fgr (Homo sapiens), sequence (P09769 2-529 limits assumed): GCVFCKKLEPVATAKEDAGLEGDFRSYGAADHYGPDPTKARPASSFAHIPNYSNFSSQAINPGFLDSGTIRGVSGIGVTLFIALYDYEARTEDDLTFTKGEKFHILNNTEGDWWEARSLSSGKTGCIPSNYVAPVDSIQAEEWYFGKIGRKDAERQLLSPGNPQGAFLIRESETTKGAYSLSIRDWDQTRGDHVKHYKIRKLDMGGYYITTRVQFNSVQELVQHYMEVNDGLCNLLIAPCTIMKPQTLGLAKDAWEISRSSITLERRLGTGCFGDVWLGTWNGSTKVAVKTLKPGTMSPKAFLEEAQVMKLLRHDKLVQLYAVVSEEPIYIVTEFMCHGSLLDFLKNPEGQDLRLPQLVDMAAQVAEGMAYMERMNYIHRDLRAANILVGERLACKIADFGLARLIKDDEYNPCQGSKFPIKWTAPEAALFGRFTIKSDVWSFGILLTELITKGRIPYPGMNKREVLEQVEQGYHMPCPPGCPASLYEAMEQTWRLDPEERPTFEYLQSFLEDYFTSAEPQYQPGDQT

On to `Cn1cc(-n2cnc3c(NCc4nc5cc(Cl)c(Cl)cc5[nH]4)nc(N4CCOCC4)nc32)cn1`, for which the % of inhibition in [1] is -11.6%. The molecule `CN(C)C/C=C/C(=O)Nc1ccc(C(=O)N2CCCC(Nc3ncc(Cl)c(-c4c[nH]c5ccccc45)n3)C2)cc1` (stereo unspecified) gave a % of control in test [2] of 91%. Regarding `Cc1cc(C)cc([C@@H]2c3cc(C)ccc3NC(=O)CN2C(=O)c2ccc(Br)s2)c1`, the % of inhibition in test [3] was -5%. With `CNC(=O)Nc1ccc(-c2nc(N3CC4CCC(C3)O4)c3cnn(C4CCC5(CC4)OCCO5)c3n2)cc1`, the % of control in [4] turned out to be 100%. For `O=C(NOC[C@H](O)CO)c1ccc(F)c(F)c1Nc1ccc(I)cc1F`, the % of control in test [5] worked out at 89%; in [6], 100%.

Molecule `COc1cc(N(C)c2ccnc3ccc(C(F)(F)F)cc23)cc(OC)c1OC` returned a % binding in [7] of 90%.

`N#Cc1cccc(-c2c[nH]c3ncnc(N4CCOCC4)c23)c1` registered a % of control in test [8] of 100%. On to `CC[C@@H]1[C@H](F)C(=O)N[C@@H]1COc1nccc2cc(C(N)=O)c(OC)cc12` [ZIMLOVISERTIB], for which the % of inhibition is 5.5% in test [9] and 57.8% in test [10]. On to `Cc1cnc(Nc2ccc(F)cc2Cl)nc1-c1c[nH]c(C(=O)N[C@H](CO)c2cccc(Cl)c2)c1`, for which the % of inhibition in test [11] was 0%. In [12], `Cc1cc(F)c(C(=O)Nc2cccc(-c3nncn3C(C)C)n2)cc1-n1cnc(C2CC2)c1` displayed a % of control of 100%.

`C=CC(=O)Nc1cc(-n2c(=O)ccc3cnc4ccc(-c5ccc(NS(C)(=O)=O)cc5)cc4c32)ccc1C`: the % of control in test [13] (at 1 µM) worked out at 100%; in test [13] (at 10 µM) it was 82%; in test [14], 90%. Molecule `COCC(=O)NC/C=C/c1ccc2ncnc(Nc3ccc(Oc4ccc(C)nc4)c(C)c3)c2c1` [CP-724714] displayed a % of control in [15] of 90%.

Values taken from ChEMBL document CHEMBL5465560, “Selectivity Literature for EUbOPEN Chemogenomic Library” (2024).
